Here are results for nine compounds from publication PMC4931907 (eLife, 2016).

Experiment [1] addresses T1, p300 (Homo sapiens, UniProt Q09472).
T1 construct: in vitro acetylation assays with purified histones and a recombinant p300 catalytic domain; purchased Enzo Life Sciences
T1 sequence (Q09472 1287-1663 limits assumed): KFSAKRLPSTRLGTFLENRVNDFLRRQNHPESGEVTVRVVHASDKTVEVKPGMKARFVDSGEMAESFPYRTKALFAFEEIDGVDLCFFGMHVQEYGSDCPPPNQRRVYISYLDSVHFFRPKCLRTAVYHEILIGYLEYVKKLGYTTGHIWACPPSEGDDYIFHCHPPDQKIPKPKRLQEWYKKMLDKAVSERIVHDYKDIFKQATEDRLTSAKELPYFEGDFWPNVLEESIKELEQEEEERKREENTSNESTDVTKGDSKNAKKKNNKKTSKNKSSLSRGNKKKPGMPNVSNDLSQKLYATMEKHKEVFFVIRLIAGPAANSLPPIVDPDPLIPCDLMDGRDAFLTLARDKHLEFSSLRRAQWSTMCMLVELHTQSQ
Kind of experiment: In vitro HAT assay with recombinant p300, histones and 14C acetyl-CoA. It is filed as biochemical. The conditions noted are these: for IC50: in vitro HAT assay, recombinant p300 and histones, read-out: IC50, p300 acetyltransferase activity; for Inhibition of p300 acetyltransferase in vitro: data not shown. The method, then:
To determine whether salicylate inhibits p300 and other acetyltransferases, we used in vitro acetylation assays with purified histones and a recombinant p300 catalytic domain.
(§1) Figure 1. Salicylate inhibits CBP/p300 in vitro. (A) Recombinant p300, CBP, GCN5, or PCAF and histones were incubated with ^14C-labeled acetyl-CoA with or without sodium salicylate, separated by SDS-PAGE, analyzed by autoradiography, and quantified with Image J software. Acetylation levels are relative to those in untreated controls. (B) Thermal stability assay for sodium salicylate binding to the p300 HAT domain. Tm, melting temperature. (C) and (D) Lineweaver-Burk plots showing kinetic analysis of p300 acetyltransferase inhibition by sodium salicylate. Histone acetylation was measured with several concentrations of acetyl-CoA (C) or histone (D) in the presence or absence of sodium salicylate. DOI: http://dx.doi.org/10.7554/eLife.11156.003 Figure 1—figure supplement 1. […] (A) Dose-response data for inhibition of p300 by salicylate and salicyl-CoA. Acetylation of an H4(3–14) peptide was monitored using direct microfluidic mobility shift analysis as previously described ([Montgomery et al., 2014]; [Fanslau et al., 2010]). Error is given as the 95% confidence interval. […] Error is given as the 95% confidence interval. DOI: http://dx.doi.org/10.7554/eLife.11156.004 [drawing 1] TEXT PRINTED IN THE PICTURE: (A) Salicylate: p300 IC50 (mM): 6.12; Confidence Interval [CI95] (mM): 5.2–7.2 | (A) Salicyl-CoA: p300 IC50 (mM): […]; Confidence Interval [CI95] […] (mM): 0.78–1.4 | (B) Diflunisal-CoA: p300 IC50 (mM): 0.02; Confidence Interval [CI95] (mM): 0.02–0.03
Recombinant HAT ([…]), either p300, CBP, PCAF, or GCN5 (Enzo Life Sciences), and 10 µg of histones (Sigma) were incubated with sodium salicylate (Sigma) in reaction buffer (50 mM HEPES, pH 8.0, 10% glycerol, 1 mM) at 30°C for 30 min and then with 0.1 mCi of ^14C acetyl-CoA at 30°C for 60 min. Reactions were stopped by adding 6x sample buffer and analyzed by SDS-PAGE. The gels were dried, and signals were obtained by autoradiography and quantified with Image J software. To quantify acetylated histone levels, we generated a standard curve from signals of lanes loaded with […] of ^14C labeled histones.

Experiment [2] has as its target T1, p300. Kind of experiment: p300 inhibition by direct microfluidic mobility shift analysis, H4(3–14) peptide. The class given is biochemical. The conditions noted are these: for IC50: microfluidic mobility shift, H4(3–14) peptide, 5 μM acetyl-CoA; for Fold increased potency of CoA metabolite in comparison with parent drug: ratio of p300 IC50 values. The method, then:
as §1
Salicyl-CoA and diflunisal-CoA were synthesized from their parent carboxylic acids and HPLC purified according to previously reported methods ([Padmakumar et al., 1997]). The purity of each acyl-CoA was confirmed by analytical HPLC prior immediately prior to utilization ([Montgomery et al., 2014]; [Fanslau et al., 2010]). P300 inhibition assays were performed using direct microfluidic mobility shift analysis as previously described. Briefly, p300 reaction mixture (50 mM HEPES, pH 7.5, 50 mM NaCl, 2 mM EDTA, 2 mM DTT, 0.05% Triton-X-100, 50 nM p300, 2 μM FITC-histone H4 peptide) was plated in 384-well plates and allowed to equilibrate at room temperature for 10 min. Reactions were initiated by addition of acetyl-CoA (final concentration = 5 μM), bringing the final assay volume to 30 μL. Assays were quenched after 10 min (<15% product accumulation) by addition of 5 μL of 0.5 M neutral hydroxylamine and transferred to a Perkin-Elmer Lab-Chip EZ-Reader instrument for analysis. Separation conditions were: downstream voltage of −500 V, upstream voltage of −2500 V, and a pressure of −1.5 psi. Percent conversion was calculated by ratiometric measurement of substrate/product peak heights. Percent activity represents the percent conversion of KAT reactions treated with inhibitors relative to untreated control KAT reactions, and corrected for nonenzymatic acetylation. Dose-response analysis of p300 inhibition was performed in triplicate and analyzed by nonlinear least-squares regression fit to Y = 100/(1 + 10∧(Log IC50 – X)*H), where H = Hill slope (variable). IC50 values represent the concentration that inhibits 50% of KAT activity. Calculations were performed using Prism 6 (GraphPad) software.

The IC50 is the point on the concentration scale where inhibition reaches its midpoint. Take `Nc1ccc(C(=O)O)c(O)c1` [4-Amino- Salicylic Acid, 4-aminosalicylic acid]: in experiment [1], the IC50 came to 12400 µM. On to `Nc1ccc(O)c(C(=O)O)c1` [5-Amino- Salicylic Acid, 5-aminosalicylic acid], for which the IC50 in experiment [1] stood at 7600 µM. Take `CC(=O)Oc1ccccc1C(=O)O` [Acetyl- Salicylic Acid, acetylsalicylic acid]: in experiment [1], the IC50 stood at 14200 µM. Consider `CC(=O)Nc1ccc(O)cc1` [acetaminophen], for which, in experiment [1], the “Inhibition of p300 acetyltransferase in vitro” value is recorded as “did not detect any inhibitory activity”. Turning to `CC(C)(COP(=O)(O)OP(=O)(O)OCC1OC(n2cnc3c(N)ncnc32)C(O)C1OP(=O)(O)O)C(O)C(=O)NCCC(=O)NCCSC(=O)c1cc(-c2ccc(F)cc2F)ccc1O` (centres unmarked) [diflunisal-CoA], in experiment [2], the IC50 was 20 µM and the “Fold increased potency of CoA metabolite in comparison with parent drug” value was 52 fold.

Regarding `COc1ccc2c(c1)c(CC(=O)O)c(C)n2C(=O)c1ccc(Cl)cc1` [indomethacin], in experiment [1], the “Inhibition of p300 acetyltransferase in vitro” value was “did not detect any inhibitory activity”. For the compound `COc1c(C)c2c(c(O)c1C/C=C(\C)CCC(=O)O)C(=O)OC2` [mycophenolic acid], the IC50 in experiment [1] turned out to be 664 µM. On the same count and under the same terms, the value for `CCOc1cc(CC(=O)N[C@@H](CC(C)C)c2ccccc2N2CCCCC2)ccc1C(=O)O` [repaglinide] was 374 µM. Take `CC(C)(COP(=O)(O)OP(=O)(O)OC[C@H]1O[C@@H](n2cnc3c(N)ncnc32)[C@H](O)[C@@H]1OP(=O)(O)O)[C@@H](O)C(=O)NCCC(=O)NCCSC(=O)c1ccccc1O` [salicyl-CoA]: in experiment [2], the IC50 is 220 µM and the “Fold increased potency of CoA metabolite in comparison with parent drug” value is 28 fold.
